Data on five molecules can be found in article PMC12006171, “Marsupial cathelicidins: characterization, antimicrobial activity and evolution in this unique mammalian lineage” (Frontiers in Immunology, 2025).

Holding throughout (test): microbe, parasite or virus in culture
Common to all, as to format: cell-based

Test [1] has as its system Pseudomonas aeruginosa clinical isolate - animal. The procedure:
(§1) Antimicrobial testing of 78 cathelicidin MPs was performed in two phases as outlined in Figure 1 . In phase I, 40 peptides (27 extant and 13 ancestral) were selected for testing based on rank (outlined above) and similarity to published marsupial cathelicidins with known antimicrobial activity ([33], [41]–[43]). These peptides were tested against nine bacteria (Staphylococcus aureus ATCC 29213 and clinical isolate, Escherichia coli ATCC 25922 and clinical isolate, Pseudomonas aeruginosa ATCC 27853 and clinical isolate, Streptococcus agalactiae ATCC 12386 and clinical isolate, Streptococcus pneumoniae ATCC 49619) and three fungi (Candida krusei ATCC 6258, Candida parapsilosis ATCC 22019, and Candida albicans clinical isolate). Details regarding these strains are available in Supplementary Table 4 . The antimicrobial activity of cathelicidins was determined as the minimum inhibitory concentration (MIC), which was the lowest concentration of cathelicidin that prevented visible bacterial or fungal growth, relative to the negative control. […] Minimum bactericidal concentration (MBC) and/or minimum fungicidal concentration (MFC) was conducted to determine microbicidal versus static action. Activity against S. aureus ATCC, E. coli ATCC, and Pseudomonas aeruginosa ATCC 27853 was examined in the presence of divalent cations to determine the impact of inhibitors.
(§2) In phase II, the remaining 38 peptides (37 extant and one ancestral) were tested against six bacteria (S. aureus ATCC and clinical isolate, E. coli ATCC and clinical isolate, and P. aeruginosa ATCC and clinical isolate). […] No further testing on phase II peptides was performed. Detailed methods for all assays are provided in subsequent sections.
(§3) Antimicrobial activity was determined using a broth microdilution susceptibility assay in 96 well polypropylene plates according to Clinical Laboratory Standards Institute guidelines M07-A and M26A as described previously ([33], [42], [43]). The bacterial and fungal isolates from humans and animals used in this study are outlined in Supplementary Table 4 . Only yeasts were included in the panel of fungi as they have been used in the susceptibility testing of eutherian ([3], [81]–[83]) and other marsupial cathelicidins previously ([33], [42], [43]). Cathelicidin mature peptides were solubilized in DMSO and serially diluted in duplicate from 128-0.25μg/mL in a final volume of 100µL. For bacteria, cathelicidins were diluted in Mueller Hinton Broth (MHB) with or without 10% lysed horse blood, and with (MH II B) or without (MHB) calcium and magnesium cations. For fungi, cathelicidins were diluted in Roswell Park Memorial Institute medium (RPMI)-1640 MOPS. Ampicillin or tetracycline were included as a positive control for Gram-positive and -negative bacteria respectively, while amphotericin B was used for fungi. A media-only negative control and growth control (no cathelicidin) were also included on each plate. Bacteria were sub-cultured on Muller Hinton agar (MHA) or sheep blood agar (BA), and fungi on Sabouraud dextrose agar (SAB), 20–24 hours prior to the test. Colonies were suspended in saline, the concentration adjusted to a 0.5 McFarland standard, and then diluted in media to a concentration of 1.0 x 10^6 cells/mL. Then, 100μL was added to each well of the cathelicidin dilution plate, giving a final inoculum density of 5 x 10^5 CFU/mL and cathelicidin concentration of 64-0.125μg/mL. Colony counts were performed on MHA/BA/SAB to confirm inoculum density. All plates were incubated at 35°C for 20–24 hours, depending on the strain.
(§4) Colonies were counted and compared to the colony count of the starting inoculum.

Test [2] deals with Pseudomonas aeruginosa ATCC 27853. The procedure:
as §1, §2, §3, §4

Test [3] has as its system Escherichia coli ATCC 25922. The conditions noted are these: ATCC 25922; for MIC: read-out: MIC E. coli ATCC. On the procedure: as §1, §2, §3, §4
For test [4], the system named is Staphylococcus aureus ATCC 29213. Particulars: ATCC 29213; for MIC: read-out: MIC S. aureus ATCC. The procedure: as §1, §2, §3, §4
For test [5], the system named is Staphylococcus aureus clinical isolate - animal. The conditions noted are these: clinical isolate - animal; for MIC: read-out: MIC S. aureus. On the procedure:
as §1, §2, §3, §4

The test system of test [6] is Escherichia coli clinical isolate - animal. Particulars: clinical isolate - animal. On the procedure:
as §1, §2, §3, §4

Where [7] appears, read: clinical isolate - animal, read-out: MIC P. aeruginosa.
Where [8] appears, read: ATCC 27853, read-out: MIC P. aeruginosa ATCC.

The structures appear in SMILES notation. Converted amounts (≈) assume the structure as drawn. Where two headings read alike, the source gives them in different places. Where a SMILES comes first, the peptide text is derived from it.

In the case of `CN(C)[C@@H]1C(O)=C(C(N)=O)C(=O)[C@@]2(O)C(O)=C3C(=O)c4c(O)cccc4[C@@](C)(O)[C@H]3C[C@@H]12` [Tetracycline, reference compound], the MIC in test [1] (Pseudomonas aeruginosa, clinical isolate, MHB without cations, 5 x 10^5 CFU/mL, 35°C 20–24 hours, duplicate, read-out: MIC P. aeruginosa) turned out to be 32 µg/mL; in test [1] (Pseudomonas aeruginosa, clinical isolate, superscript value, cation-adjusted Mueller Hinton broth, read-out: MIC in the presence of cations P. aeruginosa) it was 32 µg/mL; in test [1] (Pseudomonas aeruginosa, clinical isolate, superscript value, cation-adjusted Mueller Hinton broth, µM equivalent, read-out: MIC in the presence of cations P. aeruginosa) it was 72 µM; in test [1] (Pseudomonas aeruginosa, clinical isolate, µM equivalent of Table 3, read-out: MIC P. aeruginosa), 72 µM; in test [2] (Pseudomonas aeruginosa, ATCC27853, MHB without cations, 5 x 10^5 CFU/mL, 35°C 20–24 hours, duplicate, read-out: MIC P. aeruginosa ATCC) it was 32 µg/mL; in test [2] (Pseudomonas aeruginosa, ATCC27853, superscript value, cation-adjusted Mueller Hinton broth, read-out: MIC in the presence of cations P. aeruginosa ATCC) it was 32 µg/mL. Moreover, the MIC in test [2] (Pseudomonas aeruginosa, ATCC27853, superscript value, cation-adjusted Mueller Hinton broth, µM equivalent, read-out: MIC in the presence of cations P. aeruginosa ATCC) is 72 µM; in test [2] (Pseudomonas aeruginosa, ATCC27853, µM equivalent of Table 3, read-out: MIC P. aeruginosa ATCC), 72 µM.

As to `CC[C@H](C)[C@H](NC(=O)[C@H](CC(N)=O)NC(=O)[C@H](CCCNC(=N)N)NC(=O)[C@H](CC(C)C)NC(=O)[C@H](CCCCN)NC(=O)[C@H](CCCNC(=N)N)NC(=O)[C@H](Cc1ccccc1)NC(=O)[C@@H](NC(=O)[C@H](CC(N)=O)NC(=O)[C@H](CCC(N)=O)NC(=O)[C@H](CC(C)C)NC(=O)[C@@H](NC(=O)[C@H](CCCNC(=N)N)NC(=O)[C@H](Cc1ccc(O)cc1)NC(=O)[C@H](CCCCN)NC(=O)[C@H](CCC(N)=O)NC(=O)[C@H](Cc1ccc(O)cc1)NC(=O)[C@@H](NC(=O)[C@H](CC(C)C)NC(=O)[C@@H](N)CC(N)=O)[C@@H](C)CC)[C@@H](C)CC)C(C)C)C(=O)N[C@@H](Cc1ccccc1)C(=O)N[C@@H](CO)C(=O)N[C@@H](CCCNC(=N)N)C(=O)NCC(=O)N[C@@H](CCCNC(=N)N)C(=O)N[C@@H](CC(=O)O)C(=O)N[C@@H](CC(=O)O)C(=O)N[C@@H](CCCCN)C(=O)N[C@@H](CCC(=O)O)C(=O)O` [MaruCath9] (H-NLIYQKYRILQNVFRKLRNIFSRGRDDKE-OH), the MIC in test [3], in test [1] (setting [7]), in test [6] and in test [2] (setting [8]) was >17.3 µM each time. Besides, in test [4], the MBC S. aureus ATCC was 8.6 µM (≈ 31.7 µg/mL). Moreover, the MIC S. aureus ATCC in test [4] worked out at 8.6 µM (≈ 31.7 µg/mL). In test [5], this molecule came in with an MBC S. aureus of 8.6 µM (≈ 31.7 µg/mL). In test [5], the MIC S. aureus was determined as 8.6 µM (≈ 31.7 µg/mL).

Turning to `CC[C@H](C)[C@H](NC(=O)[C@H](C)NC(=O)[C@H](CC(N)=O)NC(=O)[C@H](CCCCN)NC(=O)[C@@H](NC(=O)[C@@H](NC(=O)[C@H](CC(N)=O)NC(=O)[C@H](CCCCN)NC(=O)[C@@H](NC(=O)[C@H](CCCCN)NC(=O)[C@H](CC(=O)O)NC(=O)CNC(=O)[C@H](C)NC(=O)[C@H](CCCNC(=N)N)NC(=O)[C@H](CCCCN)NC(=O)[C@H](CC(C)C)NC(=O)[C@H](Cc1ccccc1)NC(=O)[C@H](CC(N)=O)NC(=O)[C@H](CCCCN)NC(=O)[C@H](Cc1ccccc1)NC(=O)[C@H](CCCCN)NC(=O)[C@H](CCC(=O)O)NC(=O)[C@H](Cc1ccccc1)NC(=O)[C@@H](NC(=O)[C@H](CCCNC(=N)N)NC(=O)[C@H](CC(C)C)NC(=O)[C@H](CCCCN)NC(=O)[C@H](CCCCN)NC(=O)[C@@H](NC(=O)[C@H](CC(N)=O)NC(=O)[C@H](CCC(=O)O)NC(=O)[C@@H]1CCCN1C(=O)[C@@H](N)CCCNC(=N)N)[C@@H](C)CC)C(C)C)[C@@H](C)CC)[C@@H](C)O)[C@@H](C)CC)C(=O)N[C@@H](CC(N)=O)C(=O)N[C@@H](CC(N)=O)C(=O)N[C@@H](CC(C)C)C(=O)N[C@@H](Cc1ccccc1)C(=O)N[C@@H](CO)C(=O)O` [PeguCath3] (H-RPENIKKLRVFEKFKNFLKRAGDKIKNTIKNAINNLFS-OH), the MIC in test [3] was 14.1 µM (≈ 63.9 µg/mL); in test [4], >14.1 µM; in test [5], >14.1 µM; in test [1] (setting [7]) it was >14.1 µM; in test [6], >14.1 µM; in test [2] (setting [8]), >14.1 µM.

Molecule `CC[C@H](C)[C@H](NC(=O)CNC(=O)[C@H](Cc1ccccc1)NC(=O)CNC(=O)[C@@H](NC(=O)[C@@H](NC(=O)[C@H](CCCNC(=N)N)NC(=O)[C@H](CCCNC(=N)N)NC(=O)[C@H](CCCNC(=N)N)NC(=O)[C@@H](NC(=O)[C@H](CO)NC(=O)[C@H](CC(N)=O)NC(=O)[C@H](CCCCN)NC(=O)[C@H](CC(C)C)NC(=O)[C@H](CCCCN)NC(=O)[C@H](CCSC)NC(=O)CNC(=O)[C@@H](NC(=O)[C@H](CCCCN)NC(=O)[C@H](CCCCN)NC(=O)[C@@H](NC(=O)[C@@H](NC(=O)[C@H](CC(=O)O)NC(=O)[C@H](Cc1c[nH]c2ccccc12)NC(=O)[C@H](CC(C)C)NC(=O)CNC(=O)[C@H](CCCNC(=N)N)NC(=O)[C@@H](N)CCCCN)[C@@H](C)O)C(C)C)[C@@H](C)O)[C@@H](C)CC)C(C)C)[C@@H](C)O)C(=O)NCC(=O)N[C@H](C(=O)N[C@@H](C)C(=O)N[C@H](C(=O)N[C@@H](CC(C)C)C(=O)N[C@H](C(=O)N1CCC[C@H]1C(=O)N[C@@H](CCCNC(=N)N)C(=O)O)C(C)C)[C@@H](C)CC)[C@@H](C)O` [LahiCath5] (H-KRGLWDTVKKTGMKLKNSIRRRVTGFGIGTAILVPR-OH) had an MBC E. coli ATCC in test [3] of 3.9 µM (≈ 15.8 µg/mL). Besides, the MIC E. coli ATCC in test [3] is 3.9 µM (≈ 15.8 µg/mL). The MIC is >15.7 µM in test [4]; >15.7 µM in test [5]; >15.7 µM in test [1] (setting [7]); 3.9 µM (≈ 15.8 µg/mL) in test [6]; >15.7 µM in test [2] (setting [8]). Also, in test [6], the “MBC E. coli” value came out at 7.8 µM (≈ 31.6 µg/mL).

In the case of `CC[C@H](C)[C@H](NC(=O)[C@H](CCCNC(=N)N)NC(=O)[C@H](CCCNC(=N)N)NC(=O)[C@H](C)N)C(=O)N[C@@H](CCCNC(=N)N)C(=O)N[C@@H](CCCNC(=N)N)C(=O)N1CCC[C@H]1C(=O)N[C@@H](Cc1ccc(O)cc1)C(=O)N[C@@H](CC(C)C)C(=O)N1CCC[C@H]1C(=O)N[C@@H](CCCNC(=N)N)C(=O)N1CCC[C@H]1C(=O)N[C@@H](CCCNC(=N)N)C(=O)N1CCC[C@H]1C(=O)N[C@@H](CCCNC(=N)N)C(=O)N1CCC[C@H]1C(=O)N[C@@H](CC(N)=O)C(=O)N[C@@H](Cc1ccccc1)C(=O)N1CCC[C@H]1C(=O)N1CCC[C@H]1C(=O)N1CCC[C@H]1C(=O)N[C@@H](CCCNC(=N)N)C(=O)N1CCC[C@H]1C(=O)N[C@@H](CCCNC(=N)N)C(=O)N1CCC[C@H]1C(=O)NCC(=O)N[C@@H](CCCNC(=N)N)C(=O)N[C@@H](CO)C(=O)N[C@H](C(=O)O)C(C)C` [AnstCath2] (H-ARRIRRPYLPRPRPRPNFPPPRPRPGRSV-OH), the MBC E. coli ATCC in test [3] came out at 4.5 µM (≈ 15.8 µg/mL). This molecule yielded an MIC E. coli ATCC in test [3] of 4.5 µM (≈ 15.8 µg/mL). Also, the MIC in test [4] is >18.2 µM; in test [5] it was >18.2 µM; in test [1] (setting [7]) it was >18.2 µM; in test [6] it was 9.1 µM (≈ 32 µg/mL); in test [2] (setting [8]) it was >18.2 µM. For the same molecule, the “MBC E. coli” value in test [6] turned out to be 18.2 µM (≈ 64 µg/mL).
